Data on 16 molecules can be found in US4656184A, “2-(N-substituted hydrazone), thiazoles useful as anti-inflammatories” (priority 1982, dated 1987).

For experiment [1], the system named is edema of the ear in rats. In words: Cutaneous anti-inflammatory activity: inhibition of the edema of the ear in rats following topic administration. The settings on record: rat ear edema, topical. The experiment is classed as in vivo. The method, then: Cutaneous anti-inflammatory activity determined by the inhibition of the edema of the ear in rats following topic administration. This activity is determined by means of the method according to G. Tonelli and co-workers (Endocrinology, 1965, 77, 625-634). The effect of various concentrations of each compound is determined in at least seven rats. Inflammation is inhibited by a factor of 50% at the following concentrations: […]

In experiment [2] the test system is prostanoids. In words: Inhibition of the metabolism of 14C-arachidonate in the blood platelets of rabbits: prostanoids route (TxB2, HHT). The settings on record: rabbit blood platelets. The experiment is classed as cell-based. Here is the method:
(§1) 1.2. Inhibition of the metabolism of
(§2) ^14 C-Arachidonate in the blood platelets of rabbits
(§3) Preparation of a platelet-rich plasma (PRP)
(§4) A 12 ml blood sample is taken, by the intracardiac route, on ACD (anticoagulant consisting of an aqueous solution containing 0.27 g citric acid, 0.5 g disodium citrate and 0.02 g glucose per 20 ml water), at a rate of 1 volume ACD per 6 volumes blood. The blood is centrifuged at 200 g for 10 minutes and the supernatant (PRP) is collected. It is again centrifuged at 1500 g for 15 minutes. The blood-platelet sediment is washed with Buffer I (NaCl: 8 g/l, Tris: 1.21 g/l, KCl: 0.2 g/l, Gelatin: 2.5 g/l; the material is heated at 90° C. to dissolve the gelatin, after which are added glucose: 1 g/l, and N,N'-ethyleneglycol bis(β-aminoethyl ether,)tetraacetic acid or EGTA: 0.075 g/l). The suspension is centrifuged at 1500 g for 10 minutes, and the sediment is taken up into Buffer II (NaCl: 8 g/l, Tris: 1.21 g/l, KCl: 0.2 g/l, CaCl2 : 0.145 g/l, MgCl2 0.2 g/l, gelatin: 2.5 g/l; this material is heated to 90° C., after which glucose (1 g/l) is added, and the pH is adjusted to a value of 7.4 with 0.1 N HCl),
(§5) Metabolism of ^14 C-Arachidonate
(§6) The blood-platelet suspension (0.4 ml/tube) is pre-incubated at 37° C. for 15 minutes, either with 10 μl DMSO (reference), or with varying concentrations of products to be treated dissolved in 10 μl DMSO.
(§7) The incubation is effected in the presence of ^14 C-Arachidonate (1 μg, 0.2 μCi) distributed within 0.1 ml Buffer II. It is blocked after 15 minutes by means of 50 μl citric acid and 250 μl saturated NaCl.

In experiment [3] the target is T1, 12-lipoxygenase (Oryctolagus cuniculus, UniProt G1U492).
T1 construct: metabolism of ^14 C-Arachidonate in the blood platelets of rabbits; endogenous in cells; host or cells: washed rabbit blood platelets (from platelet-rich plasma)
T1 sequence (G1U492 1-663): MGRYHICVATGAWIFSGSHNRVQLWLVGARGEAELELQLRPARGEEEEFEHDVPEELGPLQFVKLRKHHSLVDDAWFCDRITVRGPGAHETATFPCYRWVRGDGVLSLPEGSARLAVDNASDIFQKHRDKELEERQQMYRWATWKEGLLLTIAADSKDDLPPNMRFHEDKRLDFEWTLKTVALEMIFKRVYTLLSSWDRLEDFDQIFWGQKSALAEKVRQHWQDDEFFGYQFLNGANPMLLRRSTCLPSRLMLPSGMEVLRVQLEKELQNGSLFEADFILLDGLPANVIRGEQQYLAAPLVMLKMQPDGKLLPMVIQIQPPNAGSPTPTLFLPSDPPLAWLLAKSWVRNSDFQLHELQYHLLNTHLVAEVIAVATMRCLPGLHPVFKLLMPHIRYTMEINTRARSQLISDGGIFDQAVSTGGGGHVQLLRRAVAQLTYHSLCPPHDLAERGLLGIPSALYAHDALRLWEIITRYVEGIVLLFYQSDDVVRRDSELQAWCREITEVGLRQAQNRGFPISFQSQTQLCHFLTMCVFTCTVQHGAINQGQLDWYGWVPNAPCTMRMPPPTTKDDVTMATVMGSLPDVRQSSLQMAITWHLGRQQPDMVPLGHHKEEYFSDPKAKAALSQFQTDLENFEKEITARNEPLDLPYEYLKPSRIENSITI
In words: Inhibition of the metabolism of 14C-arachidonate in the blood platelets of rabbits: 12-lipoxygenase route (12-HETE). The experiment is classed as cell-based. Conditions: rabbit blood platelets; for IC50 in the blood platelets, 12 HETE / pIC50: n.i. = no inhibition, 12 HETE. The method, then: as §1, §2, §3, §4, §5, §6, §7

Experiment [4] concerns the target T2, 5-lipoxygenase of the peritoneal leukocytes of rabbits (PMNs) (Oryctolagus cuniculus, UniProt G1SNX0).
T2 construct: metabolism of ^14 C-AA in the peritoneal PMNs of rabbits; endogenous in cells; host or cells: rabbit peritoneal polymorphonuclear leukocytes (suspension)
T2 sequence (G1SNX0 1-674): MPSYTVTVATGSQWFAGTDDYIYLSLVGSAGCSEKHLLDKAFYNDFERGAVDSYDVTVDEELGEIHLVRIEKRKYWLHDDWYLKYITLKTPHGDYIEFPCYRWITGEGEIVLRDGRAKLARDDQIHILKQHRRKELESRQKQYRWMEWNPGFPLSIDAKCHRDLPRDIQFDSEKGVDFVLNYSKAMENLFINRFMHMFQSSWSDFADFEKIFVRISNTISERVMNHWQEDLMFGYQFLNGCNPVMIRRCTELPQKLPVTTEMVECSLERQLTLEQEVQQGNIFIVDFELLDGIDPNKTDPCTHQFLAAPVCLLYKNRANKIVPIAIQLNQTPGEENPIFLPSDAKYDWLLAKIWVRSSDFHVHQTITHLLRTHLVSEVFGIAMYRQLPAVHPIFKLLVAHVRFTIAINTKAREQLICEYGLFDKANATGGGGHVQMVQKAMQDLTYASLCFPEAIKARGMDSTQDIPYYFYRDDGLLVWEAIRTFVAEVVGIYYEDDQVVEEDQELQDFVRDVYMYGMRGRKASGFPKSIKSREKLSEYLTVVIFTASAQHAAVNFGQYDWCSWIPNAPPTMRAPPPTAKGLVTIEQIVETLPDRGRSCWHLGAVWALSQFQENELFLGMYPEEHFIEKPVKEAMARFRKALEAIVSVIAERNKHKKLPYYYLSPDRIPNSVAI
In words: Inhibition of the 5-lipoxygenase of the peritoneal leukocytes of rabbits (PMNs), metabolism of 14C-arachidonate. Type of experiment: cell-based. The settings on record: rabbit peritoneal PMNs, n.i. = no inhibition. Here is the method:
1.1. Inhibition of the 5-lipoxygenase of the peritoneal leukocytes of rabbits (PMNs)
(§8) Preparation of a suspension of rabbit PMNs
(§9) The peritoneal leukocytes of rabbits are obtained and prepared according to the technique described by P. Borgeat and B. Samuelson (J. Biol. Chem. 254, n° 8, p. 2643, 1979).
as §5
(§10) The incubation and extraction methods are those described by J. Y. Vanderhoek & co-workers (J. Biol. Chem. […], 21, 10064, 1980).
(§11) The percent inhibition of the 5-lipoxygenase is determined as a function of the concentration of each compound. The concentration of product that inhibits the metabolism by a factor of 50% (IC50) is inferred from those curves.

The test system of experiment [5] is 15 HETE. Briefly: Metabolism of 14C-arachidonate in rabbit peritoneal PMNs: 15 HETE. Type of experiment: cell-based. The settings on record: 15 HETE formation, n.i. = no inhibition. The method, then: as §8, §9, §5, §10, §11
[6] abbreviates: HHT, read-out: IC50 in the blood platelets, HHT.
The mark [7] stands for this setting: thromboxane B2, read-out: IC50 in the blood platelets, T × B2.
The mark [8] stands for this setting: LTB4 formation, read-out: IC50 in the PMNs, LTB4.
Where [9] appears, read: Oryctolagus cuniculus, Platelet, HHT, read-out: IC50 in the blood platelets, HHT.
The mark [10] stands for this setting: 5 HETE formation, read-out: IC50 in the PMNs, 5 HETE.
Setting [11] is: Oryctolagus cuniculus, Platelet, thromboxane B2, read-out: IC50 in the blood platelets, T × B2.

pIC50: −log10 of the molar value. Like-named read-outs stand apart in the source and are kept apart here. Where only a bound is given, the exact number is not on record here.

In the case of `C[C@@H]1C[C@H]2[C@@H]3CCC4=CC(=O)C=C[C@]4(C)[C@@]3(F)[C@@H](O)C[C@]2(C)[C@@]1(O)C(=O)CO` [Dexamethasone], the “concentration at which inflammation is inhibited by a factor of 50%” value in experiment [1] (at least seven rats) was determined as 1 mg/mL; in experiment [1] (molar value in parentheses), 2.5 µmol/mL.
With `CCOC(=O)CCCC(C)=NNc1nccs1` [Example 1a], the pIC50 in experiment [2] (setting [6]) was 4.30; in experiment [2] (setting [7]), 4.92; in experiment [4] (setting [8]) it was 4.89. Further, the “IC50 in the blood platelets, 12 HETE” value in experiment [3] was “n.i”.
With `CCOC(=O)CCCC(C)=NNc1nccs1` [Example 1], the pIC50 is less than 4.30 in experiment [2] (setting [9]); less than 4.30 in experiment [2] (setting [7]); less than 4.30 in experiment [5] (Oryctolagus cuniculus); less than 4.30 in experiment [3]; more than 5.70 in experiment [4] (setting [10]); more than 5.70 in experiment [4] (setting [8]).
In the case of `CC(=NNc1nccs1)c1cccs1` [Example 3], the pIC50 in experiment [2] (setting [6]) was 4.70; in experiment [2] (setting [7]), 4.30; in experiment [3] it was 5.52; in experiment [4] (setting [10]) it was 4.74; in experiment [4] (setting [8]), 5.15. For the same molecule, in experiment [5], the “IC50 in the PMNs, 15 HETE” value is “n.i”.
Turning to `CC(=NNc1nccs1)c1cccs1` [Example 3d], the pIC50 in experiment [2] (setting [6]) was 4.30; in experiment [2] (setting [7]), 5.00; in experiment [3] it was 4.66; in experiment [4] (setting [10]) it was more than 5.70; in experiment [4] (setting [8]), 5.70. For the same molecule, in experiment [5], the “IC50 in the PMNs, 15 HETE” value is “n.i”.
`NC(=NNc1ccccc1)c1ccccc1` [Example 21]: the pIC50 in experiment [2] (setting [9]) was 5.00; in experiment [2] (setting [11]) it was 5.00; in experiment [4] (setting [10]), 4.70; in experiment [4] (setting [8]) it was 5.00. For the same molecule, in experiment [3], the “IC50 in the blood platelets, 12 HETE” value is listed as “n.i”.
In the case of `c1ccc2c(c1)CCCC2=NNc1nccs1` [Example 7a], the pIC50 in experiment [2] (setting [6]) is 4.82; in experiment [2] (setting [7]), 5.30; in experiment [5], 5.70; in experiment [4] (setting [10]), 5.30. Moreover, the “IC50 in the blood platelets, 12 HETE” value in experiment [3] is “n.i”.
Consider `O=C(O)c1cc(=NNc2nccs2)c2ccccc2o1` [Example 20], for which the figures for the pIC50 in experiment [2] (setting [9]) and in experiment [2] (setting [11]) were 4.70 and 4.82, respectively. The “IC50 in the blood platelets, 12 HETE” value in experiment [3] is recorded as “n.i”. Further, the “IC50 in the PMNs, 5 HETE” value in experiment [4] (5 HETE formation) was “n.i”. Further, the “IC50 in the PMNs, LTB4” value in experiment [4] (LTB4 formation) is recorded as “n.i”.
As to `CC(Cn1ccnc1)=NNc1nccs1` [Example 4], the negative-log IC50 (pIC50) in experiment [2] (setting [9]) is less than 4.30; in experiment [2] (setting [11]), less than 4.30; in experiment [5] (Oryctolagus cuniculus), 5.70; in experiment [3], less than 4.30. Also, in experiment [4] (5 HETE formation), the “IC50 in the PMNs, 5 HETE” value is given as “n.i”. Besides, the “IC50 in the PMNs, LTB4” value in experiment [4] (LTB4 formation) is on record as “n.i”.
For `CC(=O)Oc1ccccc1C(=O)O` [Aspirin], the “inhibition of the 12-lipoxygenase route (chromatographic profile, FIG. 3b)” value in experiment [3] is reported as “does not inhibit the 12-lipoxygenase route”. Further, the “concentration at which inflammation is inhibited by a factor of 50%” value in experiment [1] (at least seven rats) was 70 mg/mL; in experiment [1] (molar value in parentheses), 233 µmol/mL.
Regarding `CC(=NNc1nccs1)c1ccccc1N` [Example 15], the pIC50 is 4.60 in experiment [2] (setting [9]), more than 4.60 in experiment [2] (setting [11]), more than 4.60 in experiment [4] (setting [10]) and more than 4.60 in experiment [4] (setting [8]). For the same molecule, the “IC50 in the blood platelets, 12 HETE” value in experiment [3] is on record as “n.i”.
Take `CN1CCN(C(=NNc2ccccc2)c2ccccc2)CC1` [Example 23]: the pIC50 in experiment [2] (setting [9]), in experiment [2] (setting [11]), in experiment [3], in experiment [4] (setting [10]) and in experiment [4] (setting [8]) was 4.60 throughout.
Consider `CC(=NNc1nccs1)c1cccs1` [Example 3a], for which the pIC50 is 4.68 in experiment [2] (setting [6]); 4.89 in experiment [2] (setting [7]); 4.40 in experiment [5] (Oryctolagus cuniculus); 4.52 in experiment [3]; 4.82 in experiment [4] (setting [10]).
For the molecule `CC(=NNc1nccs1)c1ccco1` [Example 3c], the pIC50 was less than 4.30 in experiment [2] (setting [9]); 5.00 in experiment [2] (setting [11]); less than 4.30 in experiment [5] (Oryctolagus cuniculus); 4.85 in experiment [3]; 5.00 in experiment [4] (setting [10]); 5.70 in experiment [4] (setting [8]).
In the case of `c1ccc2c(c1)CCCC2=NNc1nccs1` [Example 7], the pIC50 in experiment [2] (setting [9]) is 4.80; in experiment [2] (setting [11]) it was 5.00; in experiment [5] (Oryctolagus cuniculus), 5.70; in experiment [3] it was 4.40; in experiment [4] (setting [10]) it was 5.22; in experiment [4] (setting [8]), 5.10.
As for `C[C@H](Cc1ccc(O)c(O)c1)[C@@H](C)Cc1ccc(O)c(O)c1` [NDGA, Nordihydroguaiaretic acid], the “concentration at which inflammation is inhibited by a factor of 50%” value in experiment [1] (at least seven rats) was 12.5 mg/mL; in experiment [1] (molar value in parentheses), 41 µmol/mL.
